Results from ChEMBL document CHEMBL1130660, “Design and synthesis of a tetrahydropyran-based inhibitor of mammalian ribonucleotide reductase” (Bioorg Med Chem Lett, 1998).

How the values were obtained:
Assay type in all cases: protein-complex assay
[1] = biological target: T1, Ribonucleoside-diphosphate reductase RR1 (Homo sapiens) (UniProt P23921+Q7LG56+P31350); assay: Mammalian ribonucleotide reductase (mRR) inhibitory activity at a dose of 0 uM
[2] = biological target: T1, Ribonucleoside-diphosphate reductase RR1 (Homo sapiens); assay: Mammalian ribonucleotide reductase (mRR) inhibitory activity at a dose of 100 uM
[3] = biological target: T1, Ribonucleoside-diphosphate reductase RR1 (Homo sapiens); assay: Mammalian ribonucleotide reductase (mRR) inhibitory activity at a dose of 1000 uM
[4] = biological target: T1, Ribonucleoside-diphosphate reductase RR1 (Homo sapiens); assay: Mammalian ribonucleotide reductase (mRR) inhibitory activity at a dose of 30 uM
[5] = biological target: T1, Ribonucleoside-diphosphate reductase RR1 (Homo sapiens); assay: Mammalian ribonucleotide reductase (mRR) inhibitory activity at a dose of 500 uM
[6] = biological target: T1, Ribonucleoside-diphosphate reductase RR1 (Homo sapiens); assay: Mammalian ribonucleotide reductase (mRR) inhibitory activity at a dose of 300 uM

- Residual RR activity [1]: 100%
- Residual RR activity [2]: 73%
- Residual RR activity [3]: 32%
- Residual RR activity [4]: 86%
- Residual RR activity [5]: 48%
- Residual RR activity [6]: 64%
SMILES: CC(=O)N[C@@H](Cc1ccccc1)C(=O)NC[C@@H]1O[C@H]([C@@H](C)C(=O)N[C@@H](CC(=O)O)C(=O)N[C@@H](Cc2ccccc2)C(=O)O)[C@@H](OCC(=O)O)C[C@H]1OCC(C)C
